{"source": "patent US20160324770A1", "about": "“INTRATHECAL ADMINISTRATION, PREFERABLY INTRAVENTRICULAR, OF MTOR INHIBITORS FOR THE THERAPY OF SOME NEURODEGENERATIVE, NEUROINFLAMMATORY AND NEURO-ONCOLOGIC DISEASES” (priority 2012, published 2016)", "key": {"[1]": {"experiment": "Blood and brain concentrations and metabolites (LC-MS) after intraventricular (intracerebral) administration by osmotic pump", "assay_type": "in vivo, mice", "text": "(§1) Intraventricular infusion: Under general anaesthesia obtained with Ketamine/Xylazine, Alzet osmotic pumps (http://www.alzet.com/products/guide_to_use/pump_selection.ht ml) were implanted subcutaneously on the back; a catheter leading from the pump reached the cranial vault, where it was connected to a connector (Brain Kit 3, Alzet) stereotaxically implanted in the cranium until reaching the lateral ventricle. These pumps are capable of infusing their content at a constant speed for 1-4 weeks.\nA quantitative analysis of everolimus in blood and tissue samples was performed with the isotopic dilution method using the LC-MS technique. The chromatographic system was the following: Agilent 1290 Infinity HPLC equipped with a binary pump and HiP Auto Sampler model G4226A. The injection volume was 2 μL, the analytical column used was a Phenomenex Kinetics PFP UHPLC column (Phenomenex, Milan, Italy) […], 1.7 μm, 100 Å, temperature controlled at 55° C. A gradient elution was performed using as solvent A: water with 5 mM ammonium formiate, solvent B: methanol with 0.1% formic acid. The elution profile was the following: solvent A 30%/solvent B 70% for 3 minutes, solvent A 1%/solvent B 99% from 3 to 6 minutes, at a flow velocity of 0.25 mL/min. This setup enabled an elution time of 2.5 minutes. Every injection was preceded by a cycle of washing the injector system with methanol.\nMass spectrometry was conducted using a Q-TOF MS detector model G6540A (Agilent, Germany) equipped with a Dual AJS ESI (electrospray ionization interface) system. The instrument parameters were the following: sheath gas flow: […], sheath gas temperature: 300° C., gas flow: 6 L/min, gas temperature: 300° C., nebulizer pressure: 35 psi, ion spray voltage: 5500 V.\nBoth everolimus and the isotopic internal standard were detected as ammonium adducts in the positive ion mode.\nEverolimus was extracted from whole blood in 1 mL of a methanol solution containing 10% ammonium acetate in order to enable precipitation of most of the serum protein.\nThe blood samples were freeze-dried and subsequently extracted. The extraction process was carried out in a sonication bath for approx. 10 minutes to ensure complete haemolysis and release of the drug from the cell material.\nThe process of extraction from brain samples, divided into right and left hemispheres, was similar to the one for whole blood. The tissue samples were weighed and subsequently freeze-dried. After freeze-drying the samples were finely chopped to facilitate subsequent extraction. 1 mL of the methanol solution was then added to 1% v/v of ammonium formiate with 200 ng/mL of internal standard. The samples were then subjected to 10 minutes of sonication and vortexed to ensure complete extraction of the drug. Then followed centrifugation (10 minutes, 4000 rpm, 10° C.) and the supernatant was separated from the pellet. As previously described, the solutions were purified by means of HybridSPE®-Phospholipid solid-phase extraction cartridges with a total volume of 1 ml (Sigma Aldrich, Milan) to eliminate the excess lipid material. The samples were then immediately submitted to LC-MS analysis.\n(§2) We then decided to look for the maximum tolerable dose by intraventricular administration of everolimus at concentrations 10 times higher than those shown in Table 1: A=25 mg/Kg, B=12.5 mg/Kg, C=[…].\nThough they could not be quantified, the presence of metabolites deriving from the transformation of the drug has been noted in the table."}, "[2]": {"settings": "mouse, in vivo, 25 mg/kg", "text": "as §1, §2\nTherefore, that dose was ruled out and the mice were sacrificed. […] For the subsequent assessment of therapeutic effectiveness in the different animal models, dose B (12.5 mg/Kg) was selected."}, "[3]": {"test_system": "EAE (Experimental Autoimmune Encephalomyelite) mice", "experiment": "EAE mouse model, intraventricular pump from clinical score 1", "assay_type": "in vivo, SJL/j mice", "text": "We carried out trials in mouse models exemplifying 3 families of neurological diseases: • EAE (Experimental Autoimmune Encephalomyelite, model of neuroinflammatory disease): SJL/j mice were immunized with two subcutaneous injections, performed 7 days apart, of proteolipid protein (PLP139-151), Freund's adjuvant and inactivated Mycobacterium tuberculosis. The disease severity was rated with a clinical score: 0=healthy; 1=tail weakness; 2=rear limb ataxia and/or paresis; 3=rear limb paralysis and/or front limb paresis; 4=tetraplegia; 5=state of agony or death • AD (Alzheimer's Disease, model of neurodegenerative disease): AD triple transgenic mouse (3xTg-AD) supplied by Jackson Laboratories (http://jaxmice.jax.org/strain/004807.html) Their memory was evaluated using the Passive Avoidance and Radial Maze tests; • TSC (Tuberous sclerosis complex, model of neuro-oncologic disease): TSC1 mouse with TSC1 gene within a flox cassette, supplied by Jackson Laboratories (http://jaxmice.jax.org/strain/005680.html)\n30 SJL/j mice were immunized and started developing the disease after 11 days. As they developed the neurological deficit and reached a score of 1, they were operated on and an Alzet 1004 pump containing everolimus or a vehicle was positioned. The purpose of this was to represent the usual clinical situation in which the patient goes to the doctor's on the occasion of the first attack. Generally speaking, a diagnosis is made and a high-dose steroid therapy is applied, with good regression of the symptoms, but in the majority of cases other attacks will occur and they will be followed by an increasingly less satisfactory regression, with a gradual increase in residual disability.\nIn our experimental set, the weight and clinical score of affected mice were monitored daily."}, "[4]": {"experiment": "Blood and brain concentrations and metabolites (LC-MS) after intraventricular (intracerebral) administration by osmotic pump", "assay_type": "in vivo", "settings": "mice that had received intrathecal treatment"}, "[5]": {"settings": "cited from earlier work"}, "[6]": {"test_system": "Subependymal Giant Cell Astrocytomas (SEGAs)", "settings": "systemic administration, cited from earlier work"}, "[7]": {"settings": "dose A=25 mg/Kg intraventricular, treated 3 days"}, "[8]": {"settings": "dose B=12.5 mg/Kg intraventricular, treated 14 days"}, "[9]": {"settings": "dose C=6.125 mg/Kg intraventricular, treated 14 days"}}, "note": "Where two headings read alike, the source gives them in different places."}
{"smiles": "CO[C@H]1C[C@@H]2CC[C@@H](C)[C@@](O)(O2)C(=O)C(=O)N2CCCC[C@H]2C(=O)O[C@H]([C@H](C)C[C@@H]2CC[C@@H](OCCO)[C@H](OC)C2)CC(=O)[C@H](C)/C=C(\\C)[C@@H](O)[C@@H](OC)C(=O)[C@H](C)C[C@H](C)/C=C/C=C/C=C/1C", "note": "[everolimus]", "values": [{"measurement": "Metabolites", "setting": "[1]; dose A, brain field T8 dx", "result": "No metabolites"}, {"measurement": "Metabolites", "setting": "[1]; dose A, brain field T9 sx", "result": "No metabolites"}, {"measurement": "Brain Conc", "setting": "[1]; [7]", "result": 20.4, "unit": "ng/g"}, {"measurement": "Conc/250 mg brain, Left hemisphere", "setting": "[1]; [7]", "result": "4.9 ± 2.3 /250 mg brain"}, {"measurement": "Conc/250 mg brain, Right hemisphere", "setting": "[1]; [7]", "result": "5.3 ± 2.8 /250 mg brain"}, {"measurement": "Metabolites", "setting": "[1]; dose B, brain field T5- dx", "result": "No metabolites"}, {"measurement": "Metabolites", "setting": "[1]; dose B, brain field T6 sx", "result": "No metabolites"}, {"measurement": "Brain Conc", "setting": "[1]; [8]", "result": "12 to 16", "unit": "ng/g"}, {"measurement": "Conc/250 mg brain, Left hemisphere", "setting": "[1]; [8]", "result": "2.91 ± 0.8 /250 mg brain"}, {"measurement": "Conc/250 mg brain, Right hemisphere", "setting": "[1]; [8]", "result": "3.1 ± 1.6 /250 mg brain"}, {"measurement": "Metabolites", "setting": "[1]; dose C, brain field T1- dx", "result": "No metabolites"}, {"measurement": "Metabolites", "setting": "[1]; dose C, brain field T1- sx", "result": "No metabolites"}, {"measurement": "Metabolites", "setting": "[1]; dose C, brain field T2- dx", "result": "No metabolites"}, {"measurement": "Metabolites", "setting": "[1]; dose C, brain field T2- sx", "result": "No metabolites"}, {"measurement": "Brain Conc", "setting": "[1]; [9]", "result": 11.8, "unit": "ng/g"}, {"measurement": "Conc/250 mg brain, Left hemisphere", "setting": "[1]; [9]", "result": "2.5 ± 0.2 /250 mg brain"}, {"measurement": "Conc/250 mg brain, Right hemisphere", "setting": "[1]; [9]", "result": "3.4 ± 0.7 /250 mg brain"}, {"measurement": "concentration at 3 days", "setting": "[1]; mouse, whole blood, other: intraventricular infusion by osmotic pump, dose A=25 mg/Kg intraventricular, treated 3 days, read-out: Conc, Blood", "result": "< 1000", "unit": "ng/g"}, {"measurement": "concentration at 14 days", "setting": "[1]; mouse, whole blood, other: intraventricular infusion by osmotic pump, dose B=12.5 mg/Kg intraventricular, treated 14 days, read-out: Conc, Blood", "result": "< 1000", "unit": "ng/g"}, {"measurement": "concentration at 14 days", "setting": "[1]; mouse, whole blood, other: intraventricular infusion by osmotic pump, dose C=6.125 mg/Kg intraventricular, treated 14 days, read-out: Conc, Blood", "result": "< 1000", "unit": "ng/g"}, {"measurement": "Tolerability observations", "setting": "[2]", "result": "reduction in spontaneous motility and a very slight weight reduction"}, {"measurement": "Immunosuppressive effect of intrathecal administration", "setting": "[3]; EAE mice", "result": "powerful local immunosuppressive effect"}, {"measurement": "Severity of the following 2 attacks", "setting": "[3]; intraventricular pump implanted at score 1, vs controls", "result": "not much milder than in the controls"}, {"measurement": "Severity of the first attack", "setting": "[3]; intraventricular pump implanted at score 1, vs vehicle", "result": "reduction in the severity of the first attack"}, {"measurement": "Attacks after the third attack", "setting": "[3]; intraventricular pump, controls continued to have recurring attacks", "result": "no longer manifested attacks"}, {"measurement": "Clinical score after the third attack", "setting": "[3]; score scale 0=healthy to 5=agony or death", "result": 0}, {"measurement": "Body weight after the third attack", "setting": "[3]; treated EAE mice, FIG. 3", "result": "fully recovered"}, {"measurement": "Blood concentration (detectable only in traces)", "setting": "[4]", "result": "< 1", "unit": "mg/kg"}, {"measurement": "half-life", "setting": "[5]", "result": "28 to 32", "unit": "h"}, {"measurement": "Study endpoint (volumetric reduction in SEGAs)", "setting": "[6]; 28 patients affected by TS", "result": "reached the endpoint"}, {"measurement": "Severity grade of adverse reactions", "setting": "[6]; many adverse reactions, most of infectious origin", "result": "1-3"}]}
